In patent US10081624B2, “Heterocyclic compound” (Takeda Pharmaceutical Company Limited, priority 2014, dated 2018):

Experiments:
HDAC6 enzyme = target: T1, HDAC6 enzyme (Homo sapiens, UniProt Q9UBN7); assay: HDAC6 enzyme inhibitory assay (HDAC-Glo I/II Assay kit); assay type: biochemical; settings: 1 μM test compound; read-out: HDAC6 inhibitory rate (%) (1 μM)
T1 construct: prepared by transducing full length HDAC1 and HDAC6 genes into Sf-9 insect cells; GST; purchased SignalChem; host or cells: Sf-9 insect cells
T1 sequence (Q9UBN7 1-1215): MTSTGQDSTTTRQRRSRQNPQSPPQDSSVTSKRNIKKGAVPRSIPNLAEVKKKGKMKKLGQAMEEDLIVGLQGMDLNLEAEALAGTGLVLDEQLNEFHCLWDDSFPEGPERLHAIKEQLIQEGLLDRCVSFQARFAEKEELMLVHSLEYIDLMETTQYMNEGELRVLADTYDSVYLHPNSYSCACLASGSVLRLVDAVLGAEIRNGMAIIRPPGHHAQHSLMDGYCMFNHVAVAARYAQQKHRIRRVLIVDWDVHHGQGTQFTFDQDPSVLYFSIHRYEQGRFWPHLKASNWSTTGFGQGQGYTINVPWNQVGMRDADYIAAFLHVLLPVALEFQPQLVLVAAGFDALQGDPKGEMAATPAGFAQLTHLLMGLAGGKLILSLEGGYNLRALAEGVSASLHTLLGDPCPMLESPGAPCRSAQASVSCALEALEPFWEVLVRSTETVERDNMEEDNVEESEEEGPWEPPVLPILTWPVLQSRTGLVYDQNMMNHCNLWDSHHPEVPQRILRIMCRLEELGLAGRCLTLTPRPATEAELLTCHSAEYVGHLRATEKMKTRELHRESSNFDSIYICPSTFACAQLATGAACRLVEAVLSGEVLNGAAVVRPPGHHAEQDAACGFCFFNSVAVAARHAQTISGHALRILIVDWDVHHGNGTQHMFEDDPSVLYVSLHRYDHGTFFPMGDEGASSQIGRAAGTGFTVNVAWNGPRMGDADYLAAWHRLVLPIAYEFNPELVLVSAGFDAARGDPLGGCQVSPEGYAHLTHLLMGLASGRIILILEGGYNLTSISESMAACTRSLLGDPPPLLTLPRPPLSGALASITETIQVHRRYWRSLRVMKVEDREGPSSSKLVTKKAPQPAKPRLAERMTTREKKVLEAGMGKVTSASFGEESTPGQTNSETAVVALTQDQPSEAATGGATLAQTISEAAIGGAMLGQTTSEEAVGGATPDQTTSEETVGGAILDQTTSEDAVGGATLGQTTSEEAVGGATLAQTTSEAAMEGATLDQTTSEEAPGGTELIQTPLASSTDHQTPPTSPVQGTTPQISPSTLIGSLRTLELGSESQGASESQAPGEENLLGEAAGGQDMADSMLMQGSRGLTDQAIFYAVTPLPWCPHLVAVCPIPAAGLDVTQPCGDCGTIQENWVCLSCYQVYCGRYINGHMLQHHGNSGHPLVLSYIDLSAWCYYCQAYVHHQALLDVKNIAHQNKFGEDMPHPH
Summary of the method: (§1)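 Luminescent HDAC-Glo I/II read-out after 20 min room-temperature reaction with substrate-developer, following a 60 min room-temperature enzyme–compound preincubation. Enzymes: full-length HDAC1 or HDAC6 from Sf-9 cells, GST-purified; buffer pH 7.5 Tris with NaCl, glutathione, 0.01% Tween-20. No-enzyme wells defined 100% inhibition.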

HDAC1 enzyme = target: T2, HDAC1 enzyme (Homo sapiens, UniProt Q13547); assay: HDAC1 enzyme inhibitory assay (HDAC-Glo I/II Assay kit); assay type: biochemical; settings: 1 μM test compound; read-out: HDAC1 inhibitory rate (%) (1 μM)
T2 construct: prepared by transducing full length HDAC1 and HDAC6 genes into Sf-9 insect cells; GST; purchased SignalChem; host or cells: Sf-9 insect cells
T2 sequence (Q13547 whole entry): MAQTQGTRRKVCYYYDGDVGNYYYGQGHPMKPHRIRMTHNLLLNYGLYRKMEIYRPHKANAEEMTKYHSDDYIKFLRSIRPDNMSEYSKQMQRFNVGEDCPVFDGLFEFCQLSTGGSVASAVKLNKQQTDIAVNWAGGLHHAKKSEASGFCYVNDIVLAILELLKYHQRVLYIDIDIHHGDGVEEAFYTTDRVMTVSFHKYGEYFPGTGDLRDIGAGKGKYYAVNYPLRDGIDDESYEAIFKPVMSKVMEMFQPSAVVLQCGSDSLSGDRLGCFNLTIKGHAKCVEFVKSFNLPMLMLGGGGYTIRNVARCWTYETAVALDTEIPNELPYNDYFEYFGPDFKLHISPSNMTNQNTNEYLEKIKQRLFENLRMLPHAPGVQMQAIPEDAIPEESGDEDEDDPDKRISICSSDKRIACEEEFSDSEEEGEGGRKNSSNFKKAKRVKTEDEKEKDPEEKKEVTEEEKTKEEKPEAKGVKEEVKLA
Summary of the method: as §1

Row | SMILES | inhibition at 1 µM (HDAC6 enzyme) [%] | inhibition at 1 µM (HDAC1 enzyme) [%]
1 | Cc1nnsc1C(=O)N1CCOCC1CNC(=O)c1ccc(-c2noc(C(F)(F)F)n2)s1 (stereo not shown) [Example 237, N-((4-((4-methyl-1,2,3-thiadiazol-5-yl)carbonyl)morpholin-3-yl)methyl)-5-(5-(trifluoromethyl)-1,2,4-oxadiazol-3-yl)thiophene-2-carboxamide] | 98 | 27
2 | O=C(NCC1COCCN1C(=O)C(F)(F)c1ccccc1)c1ccc(-c2noc(C(F)(F)F)n2)s1 (stereo not shown) [Example 246, N-((4-(difluoro(phenyl)acetyl)morpholin-3-yl)methyl)-5-(5-(trifluoromethyl)-1,2,4-oxadiazol-3-yl)thiophene-2-carboxamide] | 99 | 52
3 | CC(C)(C(=O)N1CCOCC1CNC(=O)c1ccc(-c2noc(C(F)(F)F)n2)s1)c1ccccc1 (stereo not shown) [Example 247, N-((4-(2-methyl-2-phenylpropanoyl)morpholin-3-yl)methyl)-5-(5-(trifluoromethyl)-1,2,4-oxadiazol-3-yl)thiophene-2-carboxamide] | 98 | 18
4 | O=C(NCC1COCCN1C(=O)C1(c2ccccc2)CC1)c1ccc(-c2noc(C(F)(F)F)n2)s1 (stereo not shown) [Example 248, N-((4-((1-phenylcyclopropyl)carbonyl)morpholin-3-yl)methyl)-5-(5-(trifluoromethyl)-1,2,4-oxadiazol-3-yl)thiophene-2-carboxamide] | 97 | 18
5 | Cn1nc2ccccc2c1C(=O)N1CCOCC1CNC(=O)c1ccc(-c2noc(C(F)(F)F)n2)s1 (stereo not shown) [Example 251, N-((4-((2-methyl-2H-indazol-3-yl)carbonyl)morpholin-3-yl)methyl)-5-(5-(trifluoromethyl)-1,2,4-oxadiazol-3-yl)thiophene-2-carboxamide] | 96 | 36
6 | O=C(NCC1COCCN1C(=O)C1CCCCC1)c1ccc(-c2noc(C(F)(F)F)n2)s1 (stereo not shown) [Example 254, N-((4-(cyclohexylcarbonyl)morpholin-3-yl)methyl)-5-(5-(trifluoromethyl)-1,2,4-oxadiazol-3-yl)thiophene-2-carboxamide] | 98 | 33

Now from value to molecule:

Row | inhibition at 1 µM (HDAC6 enzyme) [%] | inhibition at 1 µM (HDAC1 enzyme) [%] | SMILES
7 | 99 | 34 | O=C(NCC1COCCN1C(=O)C1C2CC3CC(C2)CC1C3)c1ccc(-c2noc(C(F)(F)F)n2)s1 (stereo not shown) [Example 256, N-((4-(adamantan-2-ylcarbonyl)morpholin-3-yl)methyl)-5-(5-(trifluoromethyl)-1,2,4-oxadiazol-3-yl)thiophene-2-carboxamide]
8 | 100 | 25 | Cc1oncc1C(=O)N1CCOC[C@@H]1CNC(=O)c1ccc(-c2noc(C(F)(F)F)n2)s1 [Example 259, N-(((3S)-4-((5-methyl-1,2-oxazol-4-yl)carbonyl)morpholin-3-yl)methyl)-5-(5-(trifluoromethyl)-1,2,4-oxadiazol-3-yl)thiophene-2-carboxamide]
9 | 98 | 44 | Cc1nonc1C(=O)N1CCOC[C@@H]1CNC(=O)c1ccc(-c2noc(C(F)(F)F)n2)s1 [Example 260, N-(((3S)-4-((4-methyl-1,2,5-oxadiazol-3-yl)carbonyl)morpholin-3-yl)methyl)-5-(5-(trifluoromethyl)-1,2,4-oxadiazol-3-yl)thiophene-2-carboxamide]
10 | 101 | 53 | O=C(NC[C@H]1COCCN1C(=O)C(F)(F)c1ccccc1)c1ccc(-c2noc(C(F)(F)F)n2)s1 [Example 261, N-(((3S)-4-(difluoro(phenyl)acetyl)morpholin-3-yl)methyl)-5-(5-(trifluoromethyl)-1,2,4-oxadiazol-3-yl)thiophene-2-carboxamide]
11 | 94 | 16 | O=C(NC[C@H]1COCCN1C(=O)c1cccc(-c2ccccc2)c1)c1ccc(-c2noc(C(F)(F)F)n2)s1 [Example 262, N-(((3S)-4-(biphenyl-3-ylcarbonyl)morpholin-3-yl)methyl)-5-(5-(trifluoromethyl)-1,2,4-oxadiazol-3-yl)thiophene-2-carboxamide]
